For this experiment, the target named is endothelin converting enzyme (ECE) (Sus scrofa, UniProt F1SU04). Description: "ECE" assay with porcine aortic "ECE" prep, fluorogenic substrate Suc-Ile-Ile-Trp-MCA. The experiment is classed as biochemical. How it is done:
IC50 values were determined as follows:
Porcine Aortic "ECE" Prep
Porcine aortas (22-25) were obtained fresh from a local slaughterhouse and delivered in cold PBS on ice. The aortas were cut open, rinsed with cold PBS and the endothelial cell layer scraped into cold PBS using a scalpel. The endothelial cells were pelleted by centrifugation, rinsed once with cold PBS, and repelleted. The pellet was lysed by addition of 10 volumes of 10 mM Tris-HCl, pH 7.0, containing protease inhibitors and DTS, followed by brief sonication and homogenization. The lysate was centrifuged at 100,000 g for 1 hour and the supernatant applied to a MONOQ FPLC anion exchange column equilibrated in 10 mM Tris-HCl, pH 7.0 (buffer A) which was then developed with an increasing gradient of NaCl in buffer A. The active fractions were aliquoted and stored at -70° C.
The ECE assay was performed in 96-well microplates in a total volume of 200μ/well. The assay cocktail contains 100 mM Tris-HCl, pH 7.0, 20 mM CaCl2, 80 μM substrate (Suc-Ile-Ile-Trp-MCA), enzyme and test compounds. The test compounds were preincubated with the enzyme for 15-20 minutes before initiation of the assay by addition of the substrate. The assay was incubated overnight at 37° C. and the fluorescence intensity caused by the release of AMC was determined using a fluorescence microplate reader (EX360 nm/EM460 nm). IC50 values for compounds were determined by constructing concentration-effect curves for the inhibition of enzyme activity. Concentrations on the linear portion of the inhibition curve were used to determine the IC50 utilizing a Hill plot.

[1] abbreviates: porcine aortic endothelial cell ECE prep, 80 μM Suc-Ile-Ile-Trp-MCA, 15-20 min preincubation, overnight at 37° C., pH 7.0, AMC fluorescence.

This note sets out measurements from patent US6235717A, “Pharmaceutical compounds” (Glaxo Wellcome Inc., priority 1993, dated 2001).

Non-standard residues stand in square brackets, D forms with d. Residues, ends and D or L forms follow the SMILES beside them. ξ: configuration not given here. *: point of attachment. Phe(4-Br) = N[C@@H](Cc1ccc(Br)cc1)C(=O)O; Phe(4-I) = N[C@@H](Cc1ccc(I)cc1)C(=O)O; 1Nal = N[C@@H](Cc1cccc2ccccc12)C(=O)O; ξW = NC(Cc1c[nH]c2ccccc12)C(=O)O; Cbz = O=C(OCc1ccccc1)*; Ahx = NCCCCCC(=O)O; Bn = c1ccc(C*)cc1

Broadly, the IC50 is the point on the concentration scale where inhibition reaches its midpoint.

Sequence of endothelin converting enzyme (ECE) (F1SU04 entry or part of it): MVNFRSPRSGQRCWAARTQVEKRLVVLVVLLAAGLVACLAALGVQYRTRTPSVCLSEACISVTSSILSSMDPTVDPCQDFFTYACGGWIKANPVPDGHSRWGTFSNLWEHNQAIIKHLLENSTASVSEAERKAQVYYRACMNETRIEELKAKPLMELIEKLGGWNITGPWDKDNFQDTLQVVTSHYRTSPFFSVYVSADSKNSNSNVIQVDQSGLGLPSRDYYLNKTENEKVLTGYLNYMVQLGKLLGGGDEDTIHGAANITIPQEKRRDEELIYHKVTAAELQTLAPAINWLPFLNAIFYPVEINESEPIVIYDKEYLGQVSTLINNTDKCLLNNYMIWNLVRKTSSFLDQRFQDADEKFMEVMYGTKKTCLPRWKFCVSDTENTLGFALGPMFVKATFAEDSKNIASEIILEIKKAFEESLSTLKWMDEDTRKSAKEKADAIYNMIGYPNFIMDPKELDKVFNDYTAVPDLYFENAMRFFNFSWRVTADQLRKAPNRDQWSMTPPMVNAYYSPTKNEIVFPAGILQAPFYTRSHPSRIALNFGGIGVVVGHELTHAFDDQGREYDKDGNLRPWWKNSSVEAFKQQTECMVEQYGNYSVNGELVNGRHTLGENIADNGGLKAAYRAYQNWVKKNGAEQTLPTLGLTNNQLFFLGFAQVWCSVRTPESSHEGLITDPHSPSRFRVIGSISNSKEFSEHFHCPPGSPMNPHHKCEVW

`CC[C@H](C)[C@@H](C=O)NC(=O)[C@H](Cc1ccccc1)NC(=O)[C@H](C)NC(=O)OCc1ccccc1` [Example 21, N-Bezyloxycarbonyl-S-alanyl-S-phenylalanyl-1-S-formyl-1-(2-S-butyl)-methylamide] (Cbz-Ala-Phe-Ile-aldehyde) registered an IC50 under setting [1] of 1.2 µM.
`CCC(C)C(NC(=O)OCc1ccccc1)C(=O)NC(Cc1ccccc1)C(=O)NC(C=O)Cc1c[nH]c2ccccc12` (stereo not drawn) [Example 27, N-Benzyloxycarbonyl-S-isoleucyl-S-phenylalanyl-1-S-formyl-1-(1H-indol-3-yl-methyl)-methylamide] (Cbz-Ile-Phe-Trp-aldehyde; configuration not given here) gave an IC50 under setting [1] of 0.5 µM.
Under setting [1], `CC[C@H](C)[C@H](NC(=O)CCCCc1ccccc1)C(=O)N[C@H](C(=O)NC(C=O)Cc1c[nH]c2ccccc12)[C@@H](C)CC` (stereo partly drawn) [Example 89] registered an IC50 of 0.05 µM.
Same read-out and setting: for `CC[C@H](C)[C@H](NC(=O)CCCCCNC(=O)CCCCCNC(=O)CC1NC(=O)NC1=O)C(=O)N[C@H](C(=O)NC(C=O)Cc1c[nH]c2ccccc12)[C@@H](C)CC` (stereo partly drawn) [Example 70] the value was 0.08 µM; for `C#CC(=O)C(Cc1c[nH]c2ccccc12)NC(=O)[C@@H](NC(=O)[C@@H](NC(=O)OCc1ccccc1)[C@@H](C)CC)[C@@H](C)CC` (stereo partly drawn) [Example 49, N-Benzyloxycarbonyl-L-isoleucyl-L-isoleucine-L_N-[1[2-propynoyl]2-(1H-indol-3-yl)ethyl]amide], 10 µM; for `CC[C@H](C)[C@H](NC(=O)OCc1ccccc1)C(=O)N[C@H](C(=O)NC(CNC(=O)CCN1C(=O)C=CC1=O)Cc1c[nH]c2ccccc12)[C@@H](C)CC` (stereo partly drawn) [Example 83, N-(benzyloxy)carbonyl-L-isoleucyl-L-isoleucine-L-N-[1-[(3-maleimidopropionamido]methyl]-2-(1H-indol-3-yl)ethyl]amide], 1 µM.
Still for that read-out and setting: for `CC[C@H](C)[C@H](NC(=O)CCC(=O)OC)C(=O)N[C@H](C(=O)NC(Cc1c[nH]c2ccccc12)C(OC)OC)[C@@H](C)CC` (stereo partly drawn) [Example 73] the value was 8 µM; for `C[C@H](NC(=O)OCc1ccccc1)C(=O)N[C@@H](Cc1ccccc1)C(=O)N[C@H](C=O)Cc1c[nH]c2ccccc12` [Example 26, N-Benzyloxycarbonyl-S-alanyl-S-phenylalanyl-1-S-formyl-1-(1H-indol-3-yl-methyl)-methylamide] (Cbz-Ala-Phe-Trp-aldehyde), 1.5 µM; for `COC(OC)C(Cc1c[nH]c2ccccc12)NC(=O)[C@H](Cc1c[nH]c2ccccc12)NC(=O)[C@H](Cc1c[nH]c2ccccc12)NC(=O)CCCCCNC(=O)CCCCC1SCC2NC(=O)NC21` (stereo partly drawn) [Example 78, N-[[[5-(hexahydro-2-oxo-1H-thieno[3,4-d]imidazol-4-yl)valeramido]hexanoyl]-L-trytophanyl-L-tryptophan-L-N-[1-dimethoxymethyl]2-(1H-indol-3-yl)ethyl]amide], 10 µM.
On the same count and under the same terms, for `O=C[C@H](Cc1c[nH]c2ccccc12)NC(=O)[C@H](Cc1ccc(OCc2ccccc2)cc1)NC(=O)[C@H](Cc1ccc(Br)cc1)NC(=O)OCc1ccccc1` [Example 19, N-Benzyloxycarbonyl-S-p-bromophenylalnyl-S-(O-benzyl)tyrosyl-1-S-formyl-1-(1H-indol-3-yl-methyl)-methylamide] (Cbz-[Phe(4-Br)]-Tyr(Bn)-Trp-aldehyde) the value was 0.01 µM; for “N-Benzyloxycarbonyl-L-isoleucyl-L_isoleucine-L-N-[1[2-(acetylthio)acetyl]2- phenyl)ethyl]amide [Example 55]”, 8 µM.
In turn, `CC[C@H](C)[C@H](NC(C)=O)C(=O)N[C@H](C(=O)NC(C=O)Cc1c[nH]c2ccccc12)[C@@H](C)CC` (stereo partly drawn) [Example 60] (Ac-Ile-Ile-[ξW]-aldehyde) displayed a 50% inhibitory concentration (IC50) under setting [1] of 1 µM.
Under setting [1], `CC[C@H](C)[C@H](NC(=O)CCCCCNC(=O)OCc1ccccc1)C(=O)N[C@H](C(=O)N[C@H](C=O)Cc1c[nH]c2ccccc12)[C@@H](C)CC` [Example 71] ({Cbz-Ahx}-Ile-Ile-Trp-aldehyde) showed a 50% inhibitory concentration (IC50) of 0.04 µM.
The compound `O=C[C@H](Cc1c[nH]c2ccccc12)NC(=O)[C@H](Cc1cccc2ccccc12)NC(=O)[C@H](Cc1ccc(Br)cc1)NC(=O)OCc1ccccc1` [Example 37, N-Benzyloxycarbonyl-S-p-bromophenylalanyl-S-1'naphthylalanyl-1-S-formyl-1-(1H-indol-3-yl-methyl)-methylamide] (Cbz-[Phe(4-Br)]-[1Nal]-Trp-aldehyde) returned a 50% inhibitory concentration (IC50) (pH 7) of 0.007 µM.
“N-Benzyloxycarbonyl-S-isoleucyl-S-phenylalanyl-1-S-formyl-1-(S)-1-methylpropylbutyl-methylamide [Example 23]”: inhibition under setting [1] was half-maximal at 3.5 µM (IC50).
For the compound `CC[C@H](C)[C@H](NC(=O)OCc1cccnc1)C(=O)N[C@H](C(=O)N[C@H](C=O)Cc1c[nH]c2ccccc12)[C@@H](C)CC` [Example 81], under setting [1], 0.2 µM corresponded to half-maximal inhibition (IC50).
Regarding `O=C[C@H](Cc1c[nH]c2ccccc12)NC(=O)[C@H](Cc1ccc(OCc2ccccc2)cc1)NC(=O)[C@H](Cc1c[nH]c2ccccc12)NC(=O)OCc1ccccc1` [Example 36, N-Benzyloxycarbonyl-S-tryptophanyl-S-(O-benzyl)tyrosyl-1-S-formyl-1-(1H-indol-3-yl-methyl)-methylamide] (Cbz-Trp-Tyr(Bn)-Trp-aldehyde), the IC50 under setting [1] worked out at 0.03 µM.
Turning to `CC[C@H](C)[C@H](NC(=O)CCCCCNC(=O)CCCCCNC(=O)OCc1ccccc1)C(=O)N[C@H](C(=O)N[C@@H](Cc1c[nH]c2ccccc12)C(OC)OC)[C@@H](C)CC` [Example 68], the IC50 under setting [1] amounted to 5 µM.
“N-Benzyloxycarbonyl-S-tryptophanyl-S-2'naphthylalanyl-1-S-formyl-1-(1H-indol-3-yl-methyl)-methylamide [Example 35]” registered an IC50 under setting [1] of 0.03 µM.
`CC[C@H](C)[C@H](NC(=O)OCc1ccccc1)C(=O)N[C@H](C(=O)N[C@H](C=O)Cc1c[nH]c2ccccc12)C(C)C` [Example 29, N-Benzyloxycarbonyl-S-isoleucyl-S-valyl-1-S-formyl-1-(1H-indol-3-yl-methyl)-methylamide] (Cbz-Ile-Val-Trp-aldehyde): under setting [1], the IC50 came out at 0.2 µM.
Consider `CCC(C)C(C=O)NC(=O)C(NC(=O)C(NC(=O)OCc1ccccc1)C(C)CC)C(C)CC` [Example 22, N-Benzyloxycarbonyl-S-isoleucyl-S-isoleucyl-1-S-formyl-1-(S)-1-methylpropyl)-methylamide] (Cbz-Ile-Ile-Ile-aldehyde; configuration not given here), for which the midpoint of inhibition under setting [1], the IC50, lay at 4 µM.
Still for that read-out and setting: for `CC[C@H](C)[C@H](NC(=O)OCc1ccccc1)C(=O)N[C@H](C(=O)NC(C=NNC(N)=O)Cc1c[nH]c2ccccc12)[C@@H](C)CC` (stereo partly drawn) [Example 56, N-Benzyloxycarbonyl-L-isoleucyl-L-isoleucine-L-N-[1[semicarbazonomethyl]2-(1H-indol-3-yl)ethyl]amide] the value was 10 µM; for “N-(3-Phenylpropionyl)-L-isoleucyl-L_isoleucine-L-N-[1-formyl]2-(1H-indol-3- yl)ethyl]amide [Example 59]”, 0.1 µM.
In turn, “N-(benzyloxy)carbonyl-L-isoleucyl-L-isoleucine-L-N[1-[[(5-nitro-2-pyridyl)dithio]methyl]-2-(1H-indol-3-yl)ethyl]amide [Example 57]” had an IC50 under setting [1] of 1 µM.
Under setting [1], “N-[12-[(benzyloxy)acetamido]dodecanoyl]--L-isoleucyl-L-isoleucine-L-N-[1-formyl]2-(1H-indol-3-yl)ethyl]amide [Example 79]” had an IC50 of 0.06 µM.
Turning to `O=C[C@H](Cc1c[nH]c2ccccc12)NC(=O)[C@H](Cc1cccc2ccccc12)NC(=O)[C@H](Cc1ccc(I)cc1)NC(=O)OCc1ccccc1` [Example 40, N-Benzyloxycarbonyl-S-p-iodophenylalanyl-S-1'naphthylalanyl-1-S-formyl-1-(1H-indol-3-yl-methyl)-methylamide] (Cbz-[Phe(4-I)]-[1Nal]-Trp-aldehyde), the IC50 (pH 7) stood at 0.01 µM. This counts as double-digit nanomolar.
As for `O=C(N[C@@H](Cc1ccc(Br)cc1)C(=O)N[C@@H](Cc1cccc2ccccc12)C(=O)NC(Cc1ccccc1)C(=O)C1CO1)OCc1ccccc1` (stereo partly drawn) [Example 94], the IC50 under setting [1] is 0.006 µM.
“N-Benzyloxycarbonyl-L-isoleucyl-L-isoleucine-L-N-[(E)-2-(methoxycarbonyl)vinyl]2-(1H-indol-3-yl)ethyl]amide [Example 51]” showed an IC50 under setting [1] of 10 µM.
Consider `COC(OC)[C@H](Cc1c[nH]c2ccccc12)NC(=O)[C@H](Cc1cccc2ccccc12)NC(=O)[C@H](Cc1ccc(Br)cc1)NC(=O)CCCCC1SCC2NC(=O)NC21` (stereo partly drawn) [Example 92, N-[[5-(hexahydro-2-oxo-1H-thieno[3,4-d]imidazol-4-yl)pentanoyl]-L-p-bromophenylalanyl-L-1-naphthylalanyl-L-N-[1-dimethoxymethyl]2-(1H-indol-3-yl)ethyl]amide], for which the IC50 under setting [1] was 1 µM.
“[[5-(hexahydro-2-oxo-1H-thieno[3,4-d]imidazol-4-yl]valeryl-L-isoleucyl-L-isoleucine-L-N-[1-dimethoxymethyl]2-(1H-indol-3-yl)ethyl]amide [Example 62]” came in with an IC50 under setting [1] of 2 µM.
